Experimental data: paper PMC10667816, “A Cell‐Penetrant Peptide Disrupting the Transcription Factor CP2c Complexes Induces Cancer‐Specific Synthetic Lethality” (Advanced Science, 2023)
*1 amine or outer side, *2 acyl side, *3 side chain or, on linkers, in order; H or OH if unused. Where a SMILES comes first, the peptide text is derived from it. Side-chain parts run from the residue outwards. The star is where a group is joined. γGlu = O=C(O)[C@H](CCC(=O)[*:2])N[*:1]; Palmitoyl = CCCCCCCCCCCCCCCC(=O)*

Tests used:
Solubility of peptides = assay type: physicochemical
From the text: The peptides listed in Table S3 (Supporting Information) were synthesized by either ANYGEN (Kwangju, Korea) or PepMic (Suzhou, China) and achieved purity of over 95%. These peptides were synthesized using the Solid‐phase method based on the Fmoc strategy, using an Applied Biosystems 431A peptide synthesizer on a 0.25‐mmol scale. To enhance the stability of ACP52C, saturated C16 palmitic acid, DHA, and E‐pal were utilized. These fatty acids were linked to the lysine (K) residue at the N‐terminal of ACP52C or within the ACP52 and iRGD region through a covalent bond formed between the εK NH3+ and αE or γE COO‐ groups. After synthesis, the final product was prepared through lyophilization and appeared as a white amorphous powder for both ACP52C and its derivatives. To confirm their quality, the purity and molecular weight of the final product were evaluated using amino acid analysis, analytical RP‐HPLC, and MALDI‐MS. […] FQI1, Sorafenib, and cisplatin were purchased from Sigma–Aldrich (SML0413, SML2653) or Selleckchem (S1166), respectively.
Figure S21. […]
A) A schematic representation depicting the structural diagrams, molecular weights, and minimum solubilities (in water or saline) of ACP52C and its derivatives. […] Tumor weight in the sacrificed mice after completion of drug administration schedule was expressed as means ± SE. […]

[1] = tested on: hepatocellular carcinoma and breast cancer patient‐derived cancer cells; assay: Sensitivity of patient‐derived cancer cells; assay type: cell-based, human; settings: preliminary data
Procedure: For primary cell culture, tumor tissue samples obtained from patients undergoing surgery were finely minced, washed with phosphate buffered saline (PBS) containing penicillin/streptomycin, and then treated with trypsin solution at 37 °C for up to 20 min. The resulting cell suspension was filtered through a strainer (BD Falcon, 352235). The filtered cells were maintained in EpiX media, which consists of keratinocyte serum free medium (KSFM; Gibco, 17005042) supplemented with 50 µg mL^−1 bovine pituitary extract (Gibco, 13028014), 5 ng mL^−1 human epidermal growth factor (EGF; Thermo Fisher, PHG0311L), 1 µM TGF beta inhibitor (A83‐01; Sigma–Aldrich, SML0788), 5 µM ROCK inhibitor (Y27632; Sigma–Aldrich, Y0503), and 3 µM isoproterenol (Sigma–Aldrich, I6504). The culture medium was refreshed daily. For organoid culture, portions of human tissue samples were separated and transported to the laboratory on ice within 1 h of removal from the patients in cold Hank's balanced salt solution (HBSS) with antibiotics. […]

CP2c = target: T1, CP2c (Mus musculus, UniProt Q9ERA0); assay: DNA‐IP assay of CP2c DNA binding; assay type: biochemical; settings: 0–3 µM peptide, concentration‐dependent
T1 construct: extracts from iMEL cells (day 2); endogenous in cells; host or cells: nuclear extract of HMBA-induced MEL (iMEL) cells, day 2
T1 sequence (Q9ERA0 whole entry): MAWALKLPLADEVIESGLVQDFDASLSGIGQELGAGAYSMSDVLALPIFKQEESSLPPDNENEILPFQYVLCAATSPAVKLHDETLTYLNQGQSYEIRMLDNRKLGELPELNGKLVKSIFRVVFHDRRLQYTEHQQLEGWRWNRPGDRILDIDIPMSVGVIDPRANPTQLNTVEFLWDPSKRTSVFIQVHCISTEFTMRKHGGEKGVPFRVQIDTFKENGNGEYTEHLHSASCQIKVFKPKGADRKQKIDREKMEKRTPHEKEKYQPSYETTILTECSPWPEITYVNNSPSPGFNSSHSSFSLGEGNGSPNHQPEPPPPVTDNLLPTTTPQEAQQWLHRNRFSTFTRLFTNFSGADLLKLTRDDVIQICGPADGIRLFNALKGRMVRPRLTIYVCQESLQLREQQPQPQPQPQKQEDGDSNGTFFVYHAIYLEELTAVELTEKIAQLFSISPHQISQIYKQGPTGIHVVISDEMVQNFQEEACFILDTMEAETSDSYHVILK
Procedure: DNA‐IP assay was performed essentially as described previously.^[ [14] ^] Each of the oligonucleotides was mixed and annealed in the TEN buffer. For the radio‐labeling of the DNA probe, the annealed DNA was incubated with a mixture of dATP, dGTP, dTTP, [α^32P]‐dCTP, and Klenow enzyme in reaction buffer (5 mM NaCl, 1 mM Tris HCl, 1 mM MgCl2, and 0.1 mM DTT) for 30 min at 25 °C, and stopped by incubation with EDTA (10 mM final) for 20 min at 75 °C. The radio‐labeled DNA probe was purified by applying the reaction mixture to ProbeQuant G‐50 micro columns (GE healthcare, GE28‐9034‐08). Whole extracts prepared from transfecting 293T cells or purified GST fused CP2c proteins (wildtype and point mutants) were incubated with a [α^32P]‐labeled DNA probe in binding buffer (4% glycerol, 10 mM Tris‐HCl, pH 7.4, 1 mM DTT, 1 mM EDTA, and 0.1% NP‐40) for 15 min at room temperature. Then 0–3 µM of peptides (Pep #5, Pep #8, Pep #5‐1, Pep #5‐2, and Pep #5‐2C) were added to the DNA‐protein mixture, and the mixtures were incubated for 15 min at room temperature (peptide sequences are listed in Table S3, Supporting Information). For IP, precleared extracts were incubated overnight at 4 °C with 1 µg of the following primary antibodies (CP2c, CP2b, and PIAS1). […] The radioactivity of the eluted probe was measured by scintillation counting.

CCCCCCCCCCCCCCCC(=O)N[C@@H](CCC(=O)NCCCC[C@H](NC(=O)CNC(=O)CNC(=O)[C@@H]1CCCN1C(=O)[C@H](CCCNC(=N)N)NC(=O)[C@H](CCC(N)=O)NC(=O)[C@@H]1CCCN1C(=O)[C@H](Cc1ccc(O)cc1)NC(=O)[C@H](CC(N)=O)NC(C)=O)C(=O)NCC(=O)NCC(=O)N[C@@H](CS)C(=O)N[C@@H](CCCNC(=N)N)C(=O)NCC(=O)N[C@@H](CC(=O)O)C(=O)N[C@@H](CCCCN)C(=O)NCC(=O)N1CCC[C@H]1C(=O)N[C@@H](CC(=O)O)C(=O)N[C@@H](CS)C(N)=O)C(=O)O [ACP52CGK] (Ac-NYPQRPGGK([γGlu-Palmitoyl])GGCRGDKGPDC-NH2)
concentration at which completely dissolved (Solubility of peptides): ≥ 100 mg/mL

CC(=O)N[C@@H](CC(N)=O)C(=O)N[C@@H](Cc1ccc(O)cc1)C(=O)N1CCC[C@H]1C(=O)N[C@@H](CCC(N)=O)C(=O)N[C@@H](CCCNC(=N)N)C(=O)N1CCC[C@H]1C(=O)N[C@@H](CS)C(=O)N[C@@H](CCCNC(=N)N)C(=O)NCC(=O)N[C@@H](CC(=O)O)C(=O)N[C@@H](CCCCN)C(=O)NCC(=O)N1CCC[C@H]1C(=O)N[C@@H](CC(=O)O)C(=O)N[C@@H](CS)C(N)=O [ACP52C] (Ac-NYPQRPCRGDKGPDC-NH2)
fraction of patient‐derived cancer cells showing sensitivity [1]: over 85%

CCOc1ccccc1C1CC(=O)Nc2cc3c(cc21)OCO3 (stereo not drawn) [FQI1, Factor Quinolinone Inhibitor 1, reference compound]
inhibition of DNA binding activity of CP2c (CP2c): proficient inhibition of DNA binding
